Measured values reported in ChEMBL document CHEMBL1201862, “PubChem BioAssay data set” (2004).
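Results reflect a 48-hour exposure of cells in 96-well plates to compound at five concentrations. Abbreviation: GI50, concentration required for 50% inhibition of growth.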 The source made the active and inactive calls. No stated cut-off is given here; in the data, active = GI50 up to about 1.1 µM and inactive = higher.

How the values were obtained:
Experiment in all cases: inhibition of tumour cell growth, NCI panel, 48 h
CCRF-CEM = test system: CCRF-CEM
HOP-62 = test system: HOP-62
IGROV-1 = test system: IGROV-1
KM12 = test system: KM12
MOLT-4 = test system: MOLT-4
OVCAR-4 = test system: OVCAR-4
PC-3 = test system: PC-3
RPMI-8226 = test system: RPMI-8226
SF-268 = test system: SF-268
SF-295 = test system: SF-295
SK-MEL-2 = test system: SK-MEL-2
SK-MEL-5 = test system: SK-MEL-5
SR = test system: SR
UO-31 = test system: UO-31
HOP-92 = test system: HOP-92
NCI-H226 = test system: NCI-H226
NCI-H23 = test system: NCI-H23
RXF 393 = test system: RXF 393
TK-10 = test system: TK-10

| Structure (SMILES) | GI50 (CCRF-CEM) | GI50 (HOP-62) | GI50 (IGROV-1) | GI50 (KM12) | GI50 (MOLT-4) | GI50 (OVCAR-4) | GI50 (PC-3) | GI50 (RPMI-8226) | GI50 (SF-268) | GI50 (SF-295) | GI50 (SK-MEL-2) | GI50 (SK-MEL-5) | GI50 (SR) | GI50 (UO-31) | GI50 (HOP-92) | GI50 (NCI-H226) | GI50 (NCI-H23) | GI50 (RXF 393) | GI50 (TK-10) |
| --- | --- | --- | --- | --- | --- | --- | --- | --- | --- | --- | --- | --- | --- | --- | --- | --- | --- | --- | --- |
| O=c1cn[nH]c(=S)n1/N=C/c1c[nH]c2ccccc12 | 11.3 µM (inactive) | 49.3 µM (inactive) | 0.564 µM (active) | > 100 µM (inactive) | 37.6 µM (inactive) | 88.1 µM (inactive) | 77.6 µM (inactive) | 49.5 µM (inactive) | > 100 µM (inactive) | > 100 µM (inactive) | > 100 µM (inactive) | > 100 µM (inactive) | 45.3 µM (inactive) | > 100 µM (inactive) |  |  |  |  |  |
| CC(C)(C)OC(=O)NCC(CNC(=O)OC(C)(C)C)c1nc(C(N)=O)cs1 | > 100 µM (inactive) | > 100 µM (inactive) | > 100 µM (inactive) | > 100 µM (inactive) | > 100 µM (inactive) | > 100 µM (inactive) | > 100 µM (inactive) |  |  | > 100 µM (inactive) | > 100 µM (inactive) | > 100 µM (inactive) | > 100 µM (inactive) | > 100 µM (inactive) | > 100 µM (inactive) | > 100 µM (inactive) | > 100 µM (inactive) | > 100 µM (inactive) | > 100 µM (inactive) |
| O=C(/C=C/c1ccc[nH]1)c1ccccc1 | > 100 µM (inactive) | > 100 µM (inactive) |  | > 100 µM (inactive) | > 100 µM (inactive) | > 100 µM (inactive) |  | 95.9 µM (inactive) | > 100 µM (inactive) | > 100 µM (inactive) | > 100 µM (inactive) | > 100 µM (inactive) | > 100 µM (inactive) | > 100 µM (inactive) | 56.2 µM (inactive) | > 100 µM (inactive) | > 100 µM (inactive) | > 100 µM (inactive) | > 100 µM (inactive) |
| CC(=O)NC(CCCN(Cc1ccccc1)C(=O)NCCCl)C(=O)NCc1ccccc1 (stereo not drawn) | > 100 µM (inactive) | > 100 µM (inactive) | > 100 µM (inactive) | > 100 µM (inactive) | > 100 µM (inactive) | > 100 µM (inactive) |  | > 100 µM (inactive) | > 100 µM (inactive) | > 100 µM (inactive) | > 100 µM (inactive) | > 100 µM (inactive) | > 100 µM (inactive) | > 100 µM (inactive) | > 79.4 µM (inactive) | > 100 µM (inactive) | > 100 µM (inactive) | > 100 µM (inactive) | > 100 µM (inactive) |
| Oc1cc2cc(-c3ccccc3)[nH]c2c2ccccc12 | 28.6 µM (inactive) | > 85.9 µM (inactive) | 35.6 µM (inactive) | 27.4 µM (inactive) | 39.9 µM (inactive) | 33.4 µM (inactive) |  | 16.6 µM (inactive) | 47.1 µM (inactive) | 7.1 µM (inactive) | 20.3 µM (inactive) | 14.1 µM (inactive) | > 57 µM (inactive) | 19.2 µM (inactive) | 23.8 µM (inactive) | > 100 µM (inactive) | 15 µM (inactive) | 27.8 µM (inactive) | > 100 µM (inactive) |
| CCC1C(C#N)=C(N)OC2=C1C(=O)CC(C)(C)C2 (stereo not drawn) | > 100 µM (inactive) | > 100 µM (inactive) | > 100 µM (inactive) | > 100 µM (inactive) | > 100 µM (inactive) | > 100 µM (inactive) | > 100 µM (inactive) | > 100 µM (inactive) | > 100 µM (inactive) | > 100 µM (inactive) | > 100 µM (inactive) | > 100 µM (inactive) |  |  | > 100 µM (inactive) |  | > 100 µM (inactive) |  | > 100 µM (inactive) |
| Cc1ccc(S(=O)(=O)OCCC2CN(C(=O)OCc3ccccc3)C(C)(C)O2)cc1 (stereo not drawn) | 14.4 µM (inactive) |  | 7.08 µM (inactive) | 2.75 µM (inactive) | 2.81 µM (inactive) | 6.68 µM (inactive) | 4.79 µM (inactive) | 3.92 µM (inactive) |  | 13.5 µM (inactive) | 17.7 µM (inactive) | 2.72 µM (inactive) | 4.47 µM (inactive) | 3.69 µM (inactive) | 62.2 µM (inactive) | 0.106 µM (active) | 2.96 µM (inactive) | 6.4 µM (inactive) | 8.75 µM (inactive) |
| O=c1c2cc(Br)ccc2n(C2OC(CO)C(O)C(O)C2O)c(=S)n1-c1ccccc1 (stereo not drawn) |  | > 100 µM (inactive) | > 100 µM (inactive) | > 100 µM (inactive) | 86.7 µM (inactive) | > 100 µM (inactive) |  | > 100 µM (inactive) | > 100 µM (inactive) | > 100 µM (inactive) | > 100 µM (inactive) |  | 73.3 µM (inactive) | > 100 µM (inactive) | 98.2 µM (inactive) | > 100 µM (inactive) | > 100 µM (inactive) | > 100 µM (inactive) | > 100 µM (inactive) |
| CCCc1c2c([nH]c(=O)c1C)C(=O)c1[nH]c(=O)c(C)c(CCC)c1C2=O | 21.7 µM (inactive) | > 100 µM (inactive) | 23.6 µM (inactive) |  | 3.93 µM (inactive) | 12.2 µM (inactive) |  |  | 23 µM (inactive) | 47.6 µM (inactive) |  | 3.29 µM (inactive) | 5.56 µM (inactive) | 56.4 µM (inactive) | 41 µM (inactive) | 77.3 µM (inactive) | 23.2 µM (inactive) | 19.4 µM (inactive) | 73.8 µM (inactive) |
| COc1cc(/C=N\c2ccc(C(C)C)cc2)cc(OC)c1OC | > 66.8 µM (inactive) | > 100 µM (inactive) | > 100 µM (inactive) | > 100 µM (inactive) | > 100 µM (inactive) | > 100 µM (inactive) |  | > 42 µM (inactive) | > 100 µM (inactive) | > 100 µM (inactive) | > 100 µM (inactive) | > 78 µM (inactive) | 54.3 µM (inactive) | > 74.1 µM (inactive) | > 88.3 µM (inactive) | > 100 µM (inactive) | > 100 µM (inactive) | > 100 µM (inactive) | > 100 µM (inactive) |
| COc1cc(NS(=O)(=O)c2ccc(C)cc2)c2nccnc2c1 | 10.3 µM (inactive) | 33.2 µM (inactive) | 36.9 µM (inactive) | 32.6 µM (inactive) | 12.4 µM (inactive) | 39.6 µM (inactive) |  | 25.5 µM (inactive) | 24.7 µM (inactive) | 26.7 µM (inactive) | 16.6 µM (inactive) | 23.7 µM (inactive) | 16.7 µM (inactive) | 34.4 µM (inactive) | 35.2 µM (inactive) | 36.9 µM (inactive) | 34.4 µM (inactive) | 14.3 µM (inactive) | 47 µM (inactive) |
| Sc1nnc(CCCCCCCCc2nnc(S)o2)o1 | > 100 µM (inactive) | > 100 µM (inactive) | > 100 µM (inactive) | > 100 µM (inactive) | > 100 µM (inactive) | > 100 µM (inactive) | > 100 µM (inactive) |  | > 100 µM (inactive) | > 100 µM (inactive) | > 100 µM (inactive) | > 100 µM (inactive) |  | > 100 µM (inactive) |  | > 100 µM (inactive) | > 100 µM (inactive) | > 100 µM (inactive) | > 100 µM (inactive) |
| O=C(O)CCNC(=O)c1cc(N(CCBr)CCBr)c([N+](=O)[O-])cc1[N+](=O)[O-] | > 100 µM (inactive) | > 100 µM (inactive) | > 100 µM (inactive) | > 100 µM (inactive) | > 100 µM (inactive) | > 100 µM (inactive) | > 100 µM (inactive) | > 100 µM (inactive) | > 100 µM (inactive) | > 100 µM (inactive) | > 100 µM (inactive) | > 100 µM (inactive) | > 100 µM (inactive) | > 100 µM (inactive) | > 100 µM (inactive) | > 100 µM (inactive) | > 100 µM (inactive) |  | > 100 µM (inactive) |
| COc1cc(/C=C\c2ccc(Br)cc2)cc(OC)c1OC | 0.000352 µM (active) | 0.01 µM (active) | 0.0124 µM (active) | 0.000612 µM (active) | 0.000662 µM (active) | 0.0622 µM (active) |  | 0.000582 µM (active) | 0.000792 µM (active) | 0.000296 µM (active) | 0.00794 µM (active) | 0.000527 µM (active) | 0.01 µM (active) | 0.00321 µM (active) | 0.01 µM (active) | 0.0014 µM (active) | 0.000904 µM (active) |  |  |
| Brc1cccc(C2SCc3nc4ccccc4n32)c1 (stereo not drawn) | 26.2 µM (inactive) | 15.3 µM (inactive) | 21.7 µM (inactive) | 16.1 µM (inactive) | 22.6 µM (inactive) | 19 µM (inactive) |  | 12.5 µM (inactive) | 33.5 µM (inactive) | 27.1 µM (inactive) |  | 6.4 µM (inactive) | 15.7 µM (inactive) | 9.46 µM (inactive) | 11.1 µM (inactive) | 11.2 µM (inactive) | 13.9 µM (inactive) | 5.93 µM (inactive) | 25.1 µM (inactive) |
| CCCCCCCCCCCC(=O)c1c(O)cccc1O | 24.5 µM (inactive) | 17.6 µM (inactive) | 18.1 µM (inactive) | 16 µM (inactive) | 20.4 µM (inactive) | 20.4 µM (inactive) |  | 26.7 µM (inactive) | 16.3 µM (inactive) | 17.2 µM (inactive) | 15.4 µM (inactive) | 13.6 µM (inactive) | 21 µM (inactive) | 16.5 µM (inactive) | 18.1 µM (inactive) | 19.3 µM (inactive) | 17.6 µM (inactive) | 24.4 µM (inactive) | 33 µM (inactive) |
